SMILES strings stand for the structures. Read-outs that look alike come from different tables or passages of the source.

The nature of data set [1]: Cell cytotoxicity CC50 assay (A549 and HeLa cells). Format: cell-based. Conditions: human, 6-8 days, DMEM+2% FCS. An excerpt: (§1) Cells were obtained from ATCC and the virus preparation was subjected to one round of centrifugation through a 40% (V/V) glycerol to remove any interferon produced from infected cells. Growth medium was Dulbecco's modified Eagle's medium (DMEM) with 10% (v/v) foetal calf serum (FCS), Viral maintainance medium was DMEM+2% (v/v) FCS.
Cell Cytotoxicity—CC50 (Concentration at which 50% Cell Toxicity is Observed):
(§2) A549 cells and HeLa cells were used to seed a set of 96 well plates grown until 50% confluent, a 2 fold serial dilution of the compound was performed on each cell line with DMSO (only) as control starting with 100 μM of the compound. Medium used was DMEM+2% FCS (normal medium for viral growth).
(§3) Cells were allowed to grow for 6-8 days to mimic a TCID50 assay after which cell viability was determined by adding Almar blur (similar to XT) and reading at 600 nm (excitation 540 nm).

For another data set, the system named is RSV. Kind of data set: Cytopathic effect (CPE) assay. Conditions: human respiratory syncytial virus; A549 cells and HeLa cells, 6-8 days, DMEM+2% FCS; read-out: CPE IC50. Format: cell-based.
Text: as §1
Cytopathic Effect (CPE) Assay—IC50:
as §2, §3
On the technique in general: Damage to the host cells serves as the signal in cytopathic effect assays.

Data set [2] can be described thus: Microsomal clearance, dog. Format: in vitro ADME. Conditions: male, Beagle, pooled liver microsomes. How it is done:
(§4) Pooled human liver microsomes (pooled male and female), pooled rat liver microsomes (male Sprague Dawley rats) and pooled dog liver microsomes (male Beagle dog) are purchased from a reputable commercial supplier and stored at −80° C. prior to use.
(§5) Microsomes (final protein concentration 0.5 mg/mL), 0.1 M phosphate buffer pH 7.4 and compound 2 (final substrate concentration 3 μM; final DMSO concentration 0.25%) are pre-incubated at 37° C. prior to the addition of NADPH (final concentration 1 mM) to initiate the reaction. The final incubation volume is 50 μL. A control incubation is included for each compound tested where 0.1 M phosphate buffer pH 7.4 is added instead of NADPH (minus NADPH). Two control compounds are included with each species. All incubations are performed singularly for each test compound.
(§6) Compounds are incubated for 0, 5, 15, 30 and 45 min. The control (minus NADPH) is incubated for 45 min only. The reactions are stopped by transferring 25 μL of incubate to 50 μL methanol at the appropriate time points. […] Following protein precipitation, the sample supernatants are combined in cassettes of up to 4 compounds, internal standard is added and samples analysed by LC-MS/MS. From a plot of ln peak area ratio (compound peak area/internal standard peak area) against time, the gradient of the line is determined.

Data set [3] can be described thus: Mouse in vivo pharmacokinetic assay. The arrangement: species or system male CD-1 mice. As to the method:
Pharmacokinetic evaluation of compound 2 was performed in male CD-1 mice following intravenous (IV) and oral (PO) administration. For intravenous administration the compound was formulated in solution in 40:60 DMA:saline and was administered at 1 mg/kg via the tail vein. For oral administration the compound was formulated in suspension in water containing 1% methylcellulose and 0.1% Tween80, and was administered at 10 mg/kg by oral gavage. Blood samples were taken by cardiac puncture under terminal anaesthesia (isoflurane) at ten timepoints between 1 minute and 24 hours following IV administration, and at nine timepoints between 5 minutes and 24 hours following PO administration (n=3 per timepoint). Plasma was immediately obtained by centrifugation, and the resulting samples frozen until analysis. Samples, along with a calibration curve prepared by spiking the compound into control plasma, were subsequently prepared for quantitative analysis by precipitation of plasma proteins with acetonitrile. Analysis was by ultra high performance liquid chromatography (Agilent 1290 system) coupled to time of flight mass spectrometry, using electrospray ionisation (Agilent 6550 system). Pharmacokinetic parameters were determined by non-compartmental analysis of mean concentration data using Phoenix WinNonlin v6.4.

The nature of data set [4]: Microsomal clearance, rat. Format: in vitro ADME. Particulars: male, Sprague Dawley, pooled liver microsomes. How it is done: as §4, §5, §6
Data set [5] is described as follows: Microsomal clearance, human. The class given is in vitro ADME. Particulars: both, pooled liver microsomes. As to the method:
as §4, §5, §6
(In general: Liver microsomes are vesicles of endoplasmic reticulum, rich in cytochrome P450 enzymes.)

A further data set can be described thus: MTT cell toxicity assay. Conditions: African green monkey, Vero cells. The class given is cell-based. How it is done:
Vero cells were seeded in 96-well plates in a volume of 100 μL Optimem media supplemented with 1% FBS at a concentration of 1×10^4 cells per well. After an overnight incubation at 37° C. in a humidified 5% CO2 atmosphere, the monolayer of cells should be approximately 90% confluent. Compound 2 was titrated in pre-warmed Serum Free (SF) Optimem in a U-bottom 96 well plate. For compounds in a DMSO solution, titration in 100% DMSO was performed first and each concentration added individually to a 2× final concentration at 4% DMSO. Media was then removed from cells and replaced with titrated compounds (100 μl/well). Cells were incubated at 37° C. in a humidified 5% CO2 atmosphere for 48 hours.
The MTT solution on Optimem (4 mg/ml) was prepared and 2 ul added to each well before it was incubated for 2 hours at 37° C. in a humidified 5% CO2 atmosphere. Media was then removed from the cells and DMSO added (50 ul/well). Plates were placed on a shaker prior to reading in a Spectromax at 570 nm. Data was normalised relative to untreated controls (1% DMSO only) and CC50 values determined using non-linear regression analysis with Graphpad Prism software.
A general note: Formazan colour is commonly taken as a measure of viable cells.

In the case of `O=C(CNc1c(F)c(F)nc(F)c1F)N[C@H]1N=C(c2ccccc2)c2ccccc2NC1=O` [Compound 2], the cytotoxic concentration (CC50) in data set [1] was found to be 100 µM. For the same compound, in the data set with RSV, the half-inhibitory concentration (IC50) was determined as 0.625 µM. Further, the microsomal CLint at 3 μM in data set [2] (pH 7.4, 0.5 mg/mL protein, read-out: Intrinsic clearance - dog) is 7.05 µL/min/mg; in data set [4] (pH 7.4, 0.5 mg/mL protein, read-out: Intrinsic clearance - rat), 29.2 µL/min/mg; in data set [5] (pH 7.4, 0.5 mg/mL protein, read-out: Intrinsic clearance - human) it was 52.6 µL/min/mg. The half-life at 3 μM in data set [2] (pH 7.4, read-out: t½ - dog) worked out at 197 min; in data set [4] (pH 7.4, read-out: t½ - rat), 47.5 min; in data set [5] (pH 7.4, read-out: t½ - human), 26.3 min. Besides, the “Pharmacokinetic assessment in words” value in data set [3] (IV and PO) was “orally bioavailable with moderate clearance”. Further, in data set [3] (PO 10 mg/kg vs IV 1 mg/kg), the F turned out to be 54.8%. In data set [3] (male, CD-1, plasma, IV 1 mg/kg), the Vd was determined as 3.65 L/kg. Besides, the clearance in data set [3] (male, CD-1, plasma, IV 1 mg/kg) turned out to be 63.1 mL/min/kg. Further, the half-life in data set [3] (male, CD-1, plasma, IV 1 mg/kg, read-out: IV t½) stood at 59 min; in data set [3] (male, CD-1, plasma, PO 10 mg/kg, read-out: PO t½) it was 132 min. This compound registered a Cmax in data set [3] (male, CD-1, plasma, PO 10 mg/kg) of 349 ng/mL. The midpoint of cytotoxicity in “MTT cell toxicity assay”, the CC50 at 48 h, lay at 63 µM.

As usually defined, the CC50 is the concentration at which the toxic effect on the cells reaches its halfway point. The low end stands for harm at low concentration, the high end for better tolerance by the cells. In general, IC50 refers to the concentration that gives 50% inhibition. As a reminder, the Vd is a proportionality between amount in the body and measured concentration, not a real space. The low end stands for confinement near the circulation, the high end for extensive tissue distribution. As usually defined, the clearance is the rate of elimination divided by the concentration. A low value points to a low capacity for elimination. The Cmax is the maximum level reached in the sampled fluid or tissue.

(Values after patent publication US11247973B2 (The University of Durham, priority 2016, dated 2022).)
